# Laboratory results taken from article PMC4020785 (PLoS ONE, 2014).
# Read-outs that look alike come from different tables or passages of the source.
# Tests used:
# [1] = test system: latent HIV in CD4+ T cells from virally suppressed patients; assay: HIV pol RNA (RT-qPCR) in CD4+ T cells from HIV+ HAART-treated patients; format: cell-based, human; settings: CD4+ T cells of five HIV+ HAART-treated patients, 1 µM, 24 h
# Excerpt: Whole blood from five HIV+ patients at the Hospital Universitário Gaffrée e Guinle (Rio de Janeiro, Brazil) was collected for reactivation experiments. All individuals enrolled in the study voluntarily and provided written informed consent. Patients presented undetectable viral load (<50 copies/mL), more than 500 CD4+ T cells/mm^3 and have been HAART-treated for at least 10 months (Table 1). PBMCs where isolated following a Ficoll-Paque Plus protocol (GE Healthcare, UK). CD4+ T cells were selected by magnetic beads as described above, and 10^6 cells were incubated in R10 containing 1 µM of the testing compounds (ING-B, prostratin or PMA). DMSO 1% was used as negative control. The antiretroviral EFV (10 µM) was added to all conditions to prevent viral spread. After 24 h, cells were collected for RNA isolation using the All Prep Qiagen kit (Qiagen), as instructed by the manufacturer.
# Total RNA from CD4+ T cells was analyzed by RT-qPCR using primers and probe (Life Technologies) specific for the HIV-pol region, as following: forward primer Pol-F (5'-[…] TTT T-3'), reverse primer Pol-R (5'-[…]-3') and a minor groove binder (MGB) probe Pol-Pb (5'-VIC-ATC CCC CCT TTT CTT T-3'). […]
# [2] = parameters: method as in earlier work; settings: dogs, oral dosing; ref personal communication from Aurigon Life Science – Tutzing, Germany; cited from earlier work
# [3] = parameters: method as in earlier work; settings: rats, oral dosing; ref personal communication from Aurigon Life Science – Tutzing, Germany; cited from earlier work
# J1.1 cells = assay: gag p24 production in J1.1 cells (ELISA); format: cell-based, HIV-1; settings: 1 µM, 48 h
# Description: ACH-2 and J1.1 are clonal cell lines derived from CEM [52] and Jurkat cells, respectively, after infection with HIV-1. U1 cells were derived from the human promonocyte cell line U937 and chronically infected with HIV-1 [54]. Each cell line (1×10^6 cells) was incubated in the presence of 1 µM of diterpenes (ING-A, ING-B, ING-C, prostratin and PMA) or 10 ng/mL TNF-α for 48 h at 37°C. After incubation, cells were centrifuged and supernatants were collected for the quantitation of gag p24 antigen by ELISA, following the protocol described by the manufacturer (Perkin Elmer).
# [4] = test system: HIV-1 clone NL4.3 (subtype B); assay: HIV-1 NL4.3 (subtype B) infection of MT-4 cells, Cell Titer Blue readout; format: cell-based
# Description: (§1) Human PMBCs were incubated with 100 U recombinant IL-2 (Sigma-Aldrich) and 5 µg/mL phytohemagglutinin-P (PHA-P) (Difco) for 5 days at 37°C. MT-4 cells (1×10^6) or treated PBMCs (1.2×10^8) were infected with HIV-1 clone NL-4.3 or ZM247Fv-1 (MOI of 0.001) by spinoculation (1200 g at room temperature for 2 h). Uninfected cells were used as negative control and were also subjected to the spinoculation process. After spinoculation, supernatants were discarded and cells were resuspended in 10 mL of R10. Cells from each condition were then added to wells (96-well plate) containing serial dilutions of each ISD. For MT-4 cells, each dilution was done in sextuplicates and, for PBMCs, in triplicates. Cells were also incubated with different concentrations of ZDV as positive control. After 5 days in culture, Cell Titer Blue was added to each well and cells were incubated for additional 24 h. The median effective concentration for each drug is defined as EC50. In parallel with the infectivity assay, the same cell types were treated with different concentrations of drugs to determine their cytotoxicity, following the protocol described above. Drug concentration that results in a 50% decrease in viable cells is defined as the CC50 for each compound. EC50 was calculated according to Spearman-Karber and therapeutic index was defined by the ratio between CC50 and EC50 [55].
# (§2) All statistical analyses were performed using program GraphPism version 6.0. Titrations for TCID50 infectivity were calculated by the Spearman-Karber method. Dose response curves to ISDs with HIV-1 subtype B and C were done using non-linear regression and were fit to the Hill equation.
# [5] = test system: HIV-1 clone ZM247Fv-1 (subtype C); assay: HIV-1 ZM247Fv-1 (subtype C) infection of human PBMCs, Cell Titer Blue readout; format: cell-based
# Description: as §1, §2
# human PBMCs = assay: Cytotoxicity in human PBMCs at 24 and 72 h; format: cell-based
# Description: Cytotoxicity of ISDs was evaluated in J-Lat (clones 9.2 and 10.6) and PHA-activated human PBMCs. Cells were added to wells in a 96-well plate in the presence of various concentrations of ISDs, PMA or prostratin in sextuplicates for 24 and 72 h. Cell viability was determined using the CellTiter-blue fluorescence Cell Viability Assay (Promega) following the manufacturer's instruction.
# [6] = test system: J-Lat (clones 9.2 and 10.6); assay: Cell viability of J-Lat clones 9.2 and 10.6 (CellTiter-blue); format: cell-based; settings: J-Lat clones 9.2 and 10.6, 48 h
# Description: Cytotoxicity of ISDs was evaluated in J-Lat (clones 9.2 and 10.6) and PHA-activated human PBMCs. […] Cell viability was determined using the CellTiter-blue fluorescence Cell Viability Assay (Promega) following the manufacturer's instruction.
smiles,measurement,setting,value
"CCCCCC(=O)O[C@H]1C(C)=C[C@]23C(=O)[C@@H](C=C(CO)[C@@H](O)[C@]12O)[C@H]1[C@@H](C[C@H]3C)C1(C)C [ING-B, ingenol-3-hexanoate]",HIV transcription (in words),[1],levels similar to PMA treatment
same,no-observed-adverse-effect level,[2],4 mg/kg/day
same,no-observed-adverse-effect level,[3],4 mg/kg/day
same,p24 production (in words),J1.1 cells,"as much p24 production as PMA and TNF-α, and twice as much as prostratin"
same,EC50,"[4]; Human immunodeficiency virus 1, MT4",22 nM
same,TI (CC50/EC50),"[4]; MT-4 cells, Subtype B (X4)",1272
same,TI (CC50/EC50),"[5]; Human PBMC, Subtype C (R5)",851
same,EC50,"[5]; Human immunodeficiency virus 1, PBMC",47 nM
same,cytotoxicity,human PBMCs,less cytotoxic after 72 h of treatment
same,cell viability / toxicity,[6],lower toxicity when compared to its counterparts
